From patent publication US4576943A, “Pyrazolo[1,5-a]pyrimidines” (American Cyanamid Company, priority 1984, dated 1986)

What was measured:
[1] = Hypotensive activity in spontaneously hypertensive rats; type: in vivo, spontaneously hypertensive rats of the Okamoto strain; settings: 100 mg/kg by gavage, two doses 24 hours apart, measured at 28 hours after the initial dose; one or two rats
Procedure: The novel compounds of the present invention are active hypotensive agents and were tested for hypotensive activity by the method of P. S. Chan and D. Poorvin, Clinical and Experimental Hypertension, 1 (6), 817-830 (1979). […] One to 3 rats are used per test compound. A rat is dosed by gavage with a test compound suspended in 2% pre-boiled starch at a concentration of 50 mg/ml, at a dose of 100 mg/kg of body weight or less, with 0.9% sodium chloride loading at a dose of 25 ml/kg of body weight. A second identical dose of the test compound, without sodium chloride loading is given 24 hours later. At 28 hours after the initial dose the mean arterial blood pressure is measured by the method of Chan and Poorvin (see above). The procedure is repeated in a second and third rat when necessary. The results of this test on representative compounds of the present invention which were obtained using one or two rats, at a dose of 100 mg/kg of body weight appear below in Table I.

[2] = tested on: brain-specific receptors (tritiated benzodiazepine binding, P2-synaptosomal fraction of rat whole cortex); assay: Inhibition of the binding of 3H-benzodiazepine to brain-specific receptors of rats; set-up: species or system Male albino rats (Wistar strain); settings: 3H-diazepam (1.5 nM) or 3H-flunitrazepam (1.0 nM), pH 7.4, 30 minutes in ice; test concentration not given
[3] = Hypoxic Survival Test; type: in vivo, Royal Hart mice; settings: for % Survivors: 10% oxygen, 5 minutes
Procedure: Groups of 20 Royal Hart mice (6 weeks of age) are injected intraperitoneally with 10, 50 or 100 mg/kg of test compound 30 minutes prior to placing them in a hypoxic mixture (10% oxygen in 90% […]) and measuring survival after 5 minutes.
A separate group of 20 mice is injected intraperitoneally with saline solution (0.01 cc/g of body weight) and processed as described above.
Still another group of 20 mice is injected intraperitoneally with 0.125 mg/kg of physostigmine and processed as described above.

Structure (SMILES) | Mean Arterial Blood Pressure [1] | % Inhibition of the binding of 3H-benzodiazepine [2] [%] | further results
N#Cc1c(N2CCN(CCCCOc3ccccc3)CC2)nn2c(-c3cccc(C(F)(F)F)c3)ccnc12 [2-[4-(4-Phenoxybutyl)-1-piperazinyl]-7-[3-(trifluoromethyl)phenyl]pyrazolo[1,5-a]pyrimidine-3-carbonitrile] | 147 mm of mercury | 26 | 
N#Cc1c(N2CCN(Cc3ccccc3)CC2)nn2c(-c3cccnc3)ccnc12 [2-[4-(Phenylmethyl)-1-piperazinyl]-7-(3-pyridinyl)pyrazolo[1,5-a]pyrimidine-3-carbonitrile] | 124 mm of mercury |  | % Survivors ([3]; 50 mg/kg i.p.): 40%
N#Cc1c(N2CCN(Cc3ccccc3)CC2)nn2c(-c3cccc(Cl)c3)ccnc12 [7-(3-Chlorophenyl)-2-[4-(phenylmethyl)-1-piperazinyl]pyrazolo[1,5-a]pyrimidine-3-carbonitrile] | 147 mm of mercury |  | % Survivors ([3]; 50 mg/kg i.p.): 47%
N#Cc1c(N2CCN(Cc3cccc(Cl)c3)CC2)nn2c(-c3cccc(C(F)(F)F)c3)ccnc12 [2-[4-[(3-Chlorophenyl)methyl]-1-piperazinyl]-7-[3-(trifluoromethyl)phenyl]pyrazolo[1,5-a]pyrimidine-3-carbonitrile] |  | 33 | 
CNC(=O)Oc1ccc2c(c1)[C@]1(C)CCN(C)[C@@H]1N2C [physostigmine, reference compound] |  |  | physostigmine treated mice survive ([3]; 0.125 mg/kg i.p., 5 minute exposure): 60-80%
N#Cc1c(N2CCSCC2)nn2c(-c3cccc(C(F)(F)F)c3)ccnc12 [2-(4-Thiomorpholinyl)-7-[3-(trifluoromethyl)phenyl]pyrazolo[1,5-a]pyrimidine-3-carbonitrile] | 148 mm of mercury |  | 
N#Cc1c(N2CCN(Cc3c(Cl)cccc3Cl)CC2)nn2c(-c3cccnc3)ccnc12 [2-[4-[(2,6-Dichlorophenyl)methyl]-1-piperazinyl]-7-(3-pyridinyl)pyrazolo[1,5-a]pyrimidine-3-carbonitrile] | 124 mm of mercury |  | 
Cc1cc(-c2ccncc2)n2nc(N3CCN(Cc4ccccc4)CC3)c(C#N)c2n1 [5-Methyl-2-[4-(phenylmethyl)-1-piperazinyl]-7-(4-pyridinyl)pyrazolo[1,5-a]pyrimidine-3-carbonitrile] | 122 mm of mercury |  | 
COc1cccc(CN2CCN(c3nn4c(-c5cccc(C(F)(F)F)c5)ccnc4c3C#N)CC2)c1 [2-[4-[(3-Methoxyphenyl)methyl]-1-piperazinyl]-7-[3-(trifluoromethyl)phenyl]pyrazolo[1,5-a]pyrimidine-3-carbonitrile] | 140 mm of mercury |  | 
N#Cc1c(N2CCN(Cc3c(Cl)cccc3Cl)CC2)nn2c(-c3cccc(C(F)(F)F)c3)ccnc12 [2-[4-[(2,6-Dichlorophenyl)methyl]-1-piperazinyl]-7-[3-(trifluoromethyl)phenyl]pyrazolo[1,5-a]pyrimidine-3-carbonitrile] |  | 22 | 
N#Cc1c(N2CCN(c3ccccn3)CC2)nn2c(-c3cccnc3)ccnc12 [7-(3-Pyridinyl)-2-[4-(2-pyridinyl)-1-piperazinyl]pyrazolo[1,5-a]pyrimidine-3-carbonitrile] | 143 mm of mercury |  | 
N#Cc1c(N2CCN(Cc3ccc(Cl)cc3)CC2)nn2c(-c3cccnc3)ccnc12 [2-[4-[(4-Chlorophenyl)methyl]-1-piperazinyl]-7-(3-pyridinyl)pyrazolo[1,5-a]pyrimidine-3-carbonitrile] | 137 mm of mercury |  | 
N#Cc1c(N2CCN(Cc3ccc(Cl)cc3)CC2)nn2c(-c3cccc(C(F)(F)F)c3)ccnc12 [2-[4-[(4-Chlorophenyl)methyl]-1-piperazinyl]-7-[3-(trifluoromethyl)phenyl]pyrazolo[1,5-a]pyrimidine-3-carbonitrile] | 127 mm of mercury | 15 | 
CN1CCN(c2nn3c(-c4cccc(C(F)(F)F)c4)ccnc3c2C#N)CC1 [2-(4-Methyl-1-piperazinyl)-7-[3-(trifluoromethyl)phenyl]pyrazolo[1,5-a]pyrimidine-3-carbonitrile] | 139 mm of mercury |  | 
NC(=O)c1c(N2CCN(Cc3ccccc3)CC2)nn2c(-c3cccc(C(F)(F)F)c3)ccnc12 [2-[4-(Phenylmethyl)-1-piperazinyl]-7-[3-(trifluoromethyl)phenyl]pyrazolo[1,5-a]pyrimidine-3-carboxamide] |  | 14 | 
COc1cccc(CN2CCN(c3nn4c(-c5cccnc5)ccnc4c3C#N)CC2)c1.Cl [2-[4-[(3-Methoxyphenyl)methyl]-1-piperazinyl]-7-(3-pyridinyl)pyrazolo[1,5-a]pyrimidine-3-carbonitrile, monohydrochloride] | 138 mm of mercury | 18 | 
N#Cc1c(N2CCN(CCO)CC2)nn2c(-c3cccc(C(F)(F)F)c3)ccnc12 [2-[4-(2-Hydroxyethyl)-1-piperazinyl]-7-[3-(trifluoromethyl)phenyl]pyrazolo[1,5-a]pyrimidine-3-carbonitrile] | 111 mm of mercury | 41 | % Survivors ([3]; 10 mg/kg i.p.): 45%
N#Cc1c(N2CCSCC2)nn2c(-c3cccnc3)ccnc12 [7-(3-Pyridinyl)-2-(4-thiomorpholinyl)pyrazolo[1,5-a]pyrimidine-3-carbonitrile] | 141 mm of mercury |  | % Survivors ([3]; 100 mg/kg i.p.): 50%
N#Cc1c(N2CCN(CCO)CC2)nn2c(-c3cccnc3)ccnc12 [2-[4-(2-Hydroxyethyl)-1-piperazinyl]-7-(3-pyridinyl)pyrazolo[1,5-a]pyrimidine-3-carbonitrile] |  | 25 | 
N#Cc1c(N2CCCCC2)nn2c(-c3cccnc3)ccnc12 [2-(1-Piperidinyl)-7-(3-pyridinyl)pyrazolo[1,5-a]pyrimidine-3-carbonitrile] | 141 mm of mercury | 14 | % Survivors ([3]; 100 mg/kg i.p.): 45%
N#Cc1c(N2CCC(Cc3ccccc3)CC2)nn2c(-c3cccc(C(F)(F)F)c3)ccnc12 [2-[4-(Phenylmethyl)-1-piperidinyl]-7-[3-(trifluoromethyl)phenyl]pyrazolo[1,5-a]pyrimidine-3-carbonitrile] | 142 mm of mercury | 46 | 
N#Cc1c(N2CCN(CCCCOc3ccccc3)CC2)nn2c(-c3cccnc3)ccnc12 [2-[4-(4-Phenoxybutyl)-1-piperazinyl]-7-(3-pyridinyl)pyrazolo[1,5-a]pyrimidine-3-carbonitrile] | 144 mm of mercury | 33 | 
COc1ccc(CN2CCN(c3nn4c(-c5cccc(C(F)(F)F)c5)ccnc4c3C#N)CC2)cc1 [2-[4-[(4-Methoxyphenyl)methyl]-1-piperazinyl]-7-[3-(trifluoromethyl)phenyl]pyrazolo[1,5-a]pyrimidine-3-carbonitrile] | 136 mm of mercury | 18 | 
N#Cc1c(N2CCN(Cc3ccccc3)CC2)nn2c(-c3ccc(Cl)cc3)ccnc12 [7-(4-Chlorophenyl)-2-[4-(phenylmethyl)-1-piperazinyl]pyrazolo[1,5-a]pyrimidine-3-carbonitrile] | 142 mm of mercury |  | 
N#Cc1c(N2CCN(Cc3cccc(Cl)c3)CC2)nn2c(-c3cccnc3)ccnc12 [2-[4-[(3-Chlorophenyl)methyl]-1-piperazinyl]-7-(3-pyridinyl)pyrazolo[1,5-a]pyrimidine-3-carbonitrile] | 137 mm of mercury | 12 | 
CN(C)C=NC(=O)c1c(N2CCN(Cc3ccccc3)CC2)nn2c(-c3cccc(C(F)(F)F)c3)ccnc12 [N-[(Dimethylamino)methylene]-2-[4-(phenylmethyl)-1-piperazinyl]-7-[3-(trifluoromethyl)phenyl]pyrazolo-[1,5-a]pyrimidine-3-carboxamide] | 103 mm of mercury |  | 
